Test results taken from patent publication US20140271657A1, “COMBINATORIAL COMPOSITIONS AND METHODS OF TREATING HEMOGLOBINOPATHIES” (CHILDREN'S MEDICAL CENTER CORPORATION, priority 2011, published 2014).

Experiments:
[1] = test system: human γ-globin genes; assay: Expression of human γ-globin genes monitored by qRT-PCR in β-YAC mice before and after drug treatment; assay type: in vivo, mouse
From the text: The wild-type β-globin locus transgenic (β-YAC) mouse strain was kindly provided by K. Peterson and was created with the insertion of a 213 kb YAC containing the entire human β-globin locus (30). This β-YAC line contains three intact copies of the human β-globin locus integrated at a single genomic locus. The A20 β-YAC line harboring a single copy of a 150 kb β-globin locus YAC was kindly provided by K. Gaensler and M. Groudine (31). These transgenes were maintained in the hemizygous state. C57BL/6 mice containing a Bcl11a floxed allele (with loxP sites flanking exon 1) were created through gene targeting approaches (G.C.I. et al, in preparation). To obtain the Bcl11a conditional knockout mice, the Bcl11a^fl/fl mice were crossed with various Cre strains, including EpoR-GFP Cre knock-in mice (13), Vav-Cre (32) and Mx1-Cre (33) transgenic mice. The humanized mouse model of sickle cell anemia that expresses exclusively human sickle hemoglobin (HbS) was obtained from The Jackson Laboratory and has been described and characterized previously (19). These mice contain the human sickle transgene [Tg(Hu-miniLCRα1^Gγ^Aγδβ^S)Hba^0//Hba^0Hbb^0//Hbb^0] and knockout of both the murine α- and β-globin genes (hereafter called SCD mice). The human sickle transgene were created by three DNA fragments consisting of a 6.5-kb mini-LCR, a 1.5-kb Pst I fragment containing the human α1-globin gene, and a 39-kb Kpn I fragment containing the human ^Gγ, ^Aγ, δ, and β^S globin genes in their normal genomic context (19). No significant difference in globin gene expression and SCD phenotypes were observed between mice that are knockout of one copy or both copies of murine α-globin genes. To generate BCL11A knockout SCD mice, the inventors introduced the EpoR-Cre and Bcl11a^fl/fi alleles into the SCD transgenic knockout mice (hereafter called SCD/Bcl11a^−/− mice). Mice containing both the human sickle transgene and at least one copy of murine β-globin gene were used as controls. PolyI:ployC (pIpC, SIGMA®) was prepared at 2 mg/ml in PBS and administrated via intraperitoneal (i.p.) injection daily at a dose of 25 μg/kg for 7 days. […]
FACS-sorted CD71^+Ter1 19^+ erythroid cells was isolated from bone marrows of 6-week old mice. […] Model-based expression value of probe sets were calculated by dChip from raw AFFYMETRIX® CEL files, and QQ-normalization was then applied to normalize the expression value distribution among multiple arrays (41). […] For quantitative RT-PCR analysis, RNA was extracted using a QIAamp® RNA Blood Mini Kit or an RNeasy® Plus Mini Kit (QIAGEN®). Quantified RNA was reverse-transcribed using an iScript cDNA Synthesis Kit (BIO-RAD®). cDNA samples were analyzed in triplicate with the iQ™ SYBR® Green Supermix using the iCycler Real-Time PCR Detection System (BIO-RAD®). […]

[2] = test system: HDAC; settings: cited from earlier work; for concentration at which HDAC is inhibited: in vitro or in vivo, literature
[3] = test system: acetyl-H3 (H3ac); assay: Western blot of acetyl-H3 (H3ac) in whole-cell extracts of bone marrow cells of treated mice; assay type: in vivo, mouse; settings: after SAHA treatment, control and Bcl11a−/− (EpoR-Cre+) mice
From the text: (§1) The wild-type β-globin locus transgenic (β-YAC) mouse strain was kindly provided by K. Peterson and was created with the insertion of a 213 kb YAC containing the entire human β-globin locus (30). This β-YAC line contains three intact copies of the human β-globin locus integrated at a single genomic locus. The A20 β-YAC line harboring a single copy of a 150 kb β-globin locus YAC was kindly provided by K. Gaensler and M. Groudine (31). These transgenes were maintained in the hemizygous state. C57BL/6 mice containing a Bcl11a floxed allele (with loxP sites flanking exon 1) were created through gene targeting approaches (G.C.I. et al, in preparation). To obtain the Bcl11a conditional knockout mice, the Bcl11a^fl/fl mice were crossed with various Cre strains, including EpoR-GFP Cre knock-in mice (13), Vav-Cre (32) and Mx1-Cre (33) transgenic mice. The humanized mouse model of sickle cell anemia that expresses exclusively human sickle hemoglobin (HbS) was obtained from The Jackson Laboratory and has been described and characterized previously (19). […]
Expression of BCL11A was assessed using antibody 14B5 and 15E3AC11 (Abcam Inc.), as described previously (9). […] GAPDH (sc-25778, Santa Cruz Biotechnology Inc.) was analyzed as a loading control.

[4] = test system: acetyl-H3 within γ-promoter regions; assay: ChIP of chromatin acetyl-H3 within human globin loci in CD71+Ter119+ BM cells of treated β-YAC mice; assay type: in vivo, mouse; settings: after SAHA treatment
From the text: as §1
ChIP was performed as previously described (10). […] Precipitated DNA samples were quantified using primers designed to amplify several control regions within the human β-globin locus as indicated below the graph. […]

Nc1ncn([C@H]2C[C@H](O)[C@@H](CO)O2)c(=O)n1 [5-azaD, 5-aza-2′-deoxycytidine]
interaction of 5-azaD treatment with BCL11A loss on γ-globin mRNA ([1]; Bcl11a−/− (EpoR-Cre+) vs control β-YAC mice, 5 mg/kg daily for 5 days i.p., 5 mg/kg): unexpectedly synergistic | γ-globin mRNA ([1]; Bcl11a−/− (EpoR-Cre+) β-YAC mice, 5-azaD 5 mg/kg daily for 5 days i.p.): 37.9% | change in γ-globin mRNA ([1]; normal (control, Bcl11a+/+) β-YAC mice, 5-azaD 5 mg/kg daily for 5 days i.p.): very small increment

CCC(=O)CCCCC[C@@H]1NC(=O)[C@H]2CCCCN2C(=O)[C@H]([C@@H](C)CC)NC(=O)[C@H](Cc2cn(OC)c3ccccc23)NC1=O [Apicidin]
concentration at which HDAC is inhibited [2]: nanomolar concentrations

O=C(/C=C/c1cccc(C(=O)NO)c1)NO [CBHA, m-carboxy-cinnamic acid bishydroxamic acid]
concentration at which HDAC is inhibited [2]: micromolar concentration or lower

C/C=C1\NC(=O)[C@H]2CSSCC/C=C/[C@H](CC(=O)N[C@H](C(C)C)C(=O)N2)OC(=O)[C@H](C(C)C)NC1=O [FR901228]
concentration at which HDAC is inhibited [2]: micromolar concentrations

O=C(CCCCCCC(=O)Nc1ccccc1)NO [SAHA, suberoylanilide hydroxamic acid]
interaction of SAHA with BCL11A loss in derepression of γ-globin mRNA ([1]; Bcl11a−/− (EpoR-Cre+) vs control β-YAC mice, 25 mg/kg daily i.p. for up to three weeks): synergized | level of histone H3 acetylation in bone marrow cells [3]: elevated | level of histone H3 acetylation within γ-promoter regions [4]: elevated

C=C[C@@H](O)[C@@H]1O[C@H]1/C=C/[C@@H]1O[C@@H]1[C@@H](C)O [depudecin]
concentration at which HDAC is inhibited [2]: micromolar concentrations

trichostatin A [TSA]
inhibition of mammalian HDAC ([2]; literature (Yoshida et al. 1990)): potent inhibitor
